# Target: T1, KRAS G12C 1-169, his-tagged protein, GDP-loaded (Homo sapiens, UniProt P01116, G12C)
# T1 construct: KRAS G12C 1-169, his-tagged protein, GDP-loaded; His tag
# Assay: Biochemical assay: covalent modification of KRAS G12C measured by mass spectrometry
# Format: binding
# Conditions: after a 10 minute incubation period
# Method: Test compounds are prepared as 10 mM stock solutions in DMSO (Fisher cat #BP-231-100). KRAS G12C 1-169, his-tagged protein, GDP-loaded is diluted to 2 μM or 0.5 μM in buffer (20 mM Hepes, 150 mM NaCl, 1 mM MgCl2). Compounds are tested for activity as follows:
# Compounds are diluted to 50× final test concentration in DMSO in 96-well storage plates. Compound stock solutions are vortexed before use and observed carefully for any sign of precipitation. […] The plate is then resealed with aluminum seal and stored on dry ice until analyzed as described below.
# The above described assays are analyzed by mass spectrometry according to one of the following two procedures: […]
# After another 30 minute equilibration time, a blank batch (i.e., buffer) is run to ensure equipment is operating properly. […] The method is then run and masses of each individual well recorded. […]
# The masses and peak intensities of KRAS G12C protein species are measured using a Dionex RSLCnano system (Thermo Scientific) connected to a Q Exactive Plus mass spectrometer (Thermo Scientific). […]
# The mass spectrometer is operated in profile mode at a resolution of 17500, 5 microscans, using 50 msec max injection time and an AGC target of 1×10^6, and a full mass range from 800-1850 m/z is recorded. […]
# T1 sequence (P01116 1-169 isoform P01116-2 G12C): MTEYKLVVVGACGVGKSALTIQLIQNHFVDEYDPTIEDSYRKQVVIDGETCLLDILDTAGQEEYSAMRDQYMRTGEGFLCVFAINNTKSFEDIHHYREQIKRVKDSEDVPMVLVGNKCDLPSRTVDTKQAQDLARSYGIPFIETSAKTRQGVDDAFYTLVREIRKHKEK
smiles,measurement,value
"C=CC(=O)N1C[C@H](C)N(c2nc(C3CN(C(C)C)C3)nc3c(F)c(-c4c(O)cccc4F)c(Cl)cc23)C[C@H]1C (atropisomer, axis not shown) [Compound 1, 1-((2R,5S)-4-((S)-6-chloro-8-fluoro-7-(2-fluoro-6-hydroxyphenyl)-2-(1-isopropylazetidin-3-yl)quinazolin-4-yl)-2,5-dimethylpiperazin-1-yl)prop-2-en-1-one]",binding to KRAS G12C (modification percentage),greater than 75%

# Reference: patent US11639346B2, “Quinazoline derivatives as modulators of mutant KRAS, HRAS or NRAS” (Araxes Pharma LLC, priority 2017, dated 2023)
